# Experimental data published in patent US4563472A, “Iodoallyl and iodopropargyl substituted tetrazoles and anti-microbial compositions thereof” (Meiji Seika Kaisha, Ltd., priority 1982, dated 1986).
# Where two headings read alike, the source gives them in different places.
# Legend:
# Glomerella cingulata = test: Antibacterial and Antifungal Activities (in Agricultural Field), MIC; type: cell-based; details: Colletotrichum gloeosporioides, read-out: Minimal Inhibitory Conc. (MIC)
# [1] = tested on: Xanthomonas campestris pv. citri; test: as above; type: cell-based; details: read-out: Minimal Inhibitory Conc. (MIC)
# [2] = tested on: Aspergillus flavus ATCC 6275; test: Antifungal Activity (in Industrial Field), MIC; type: cell-based; details: ATCC6275, read-out: Minimal Inhibitory Conc. (MIC)
# [3] = tested on: Staphylococcus aureus 209P JC-1; test: Antibacterial Activity (in medicinal field), MIC; type: cell-based; details: Staphylococcus aureus 209P JC-1; read-out: Minimal Inhibitory Conc. (MIC)
# [4] = tested on: Trichophyton interdigitale; test: Antifungal Activity (in Medicinal Field), MIC; type: cell-based; details: read-out: Minimal Inhibitory Conc. (MIC)
# Pellicularia filamentosa = test: Antibacterial and Antifungal Activities (in Agricultural Field), MIC; type: cell-based; details: read-out: Minimal Inhibitory Conc. (MIC)
# [5] = tested on: Aspergillus fumigatus IAM 2621; test: Antifungal Activity (in Industrial Field), MIC; type: cell-based; details: IAM2621, read-out: Minimal Inhibitory Conc. (MIC)
# Alternaria kikuchiana = test: Antibacterial and Antifungal Activities (in Agricultural Field), MIC; type: cell-based; details: read-out: Minimal Inhibitory Conc. (MIC)
# [6] = tested on: Shigella sonnei EW 33 Type I; test: Antibacterial Activity (in medicinal field), MIC; type: cell-based; details: Shigella sonnei, EW33TYPEI, read-out: Minimal Inhibitory Conc. (MIC)
# Gibberella fujikuroi = test: Antibacterial and Antifungal Activities (in Agricultural Field), MIC; type: cell-based; details: Fusarium fujikuroi, read-out: Minimal Inhibitory Conc. (MIC)
# [7] = tested on: Penicillium luteum ATCC 9644; test: Antifungal Activity (in Industrial Field), MIC; type: cell-based; details: Ascospirella lutea, ATCC9644, read-out: Minimal Inhibitory Conc. (MIC)
# [8] = tested on: Klebsiella pneumoniae PCI-602; test: Antibacterial Activity (in medicinal field), MIC; type: cell-based; details: PCI602, read-out: Minimal Inhibitory Conc. (MIC)
# Cochliobolus miyabeanus = test: Antibacterial and Antifungal Activities (in Agricultural Field), MIC; type: cell-based; details: Bipolaris oryzae, read-out: Minimal Inhibitory Conc. (MIC)
# [9] = tested on: Trichophyton metagrophytes 530324; test: Antifungal Activity (in Medicinal Field), MIC; type: cell-based; details: Trichophyton metagrophytes 530324; read-out: Minimal Inhibitory Conc. (MIC)
# Erwinia carotovora = test: Antibacterial and Antifungal Activities (in Agricultural Field), MIC; type: cell-based; details: Pectobacterium carotovorum, read-out: Minimal Inhibitory Conc. (MIC)
# [10] = tested on: Cryptococcus neoformans Cr-1; test: Antifungal Activity (in Medicinal Field), MIC; type: cell-based; details: CR1, read-out: Minimal Inhibitory Conc. (MIC)
# Botrytis cinerea = test: Antibacterial and Antifungal Activities (in Agricultural Field), MIC; type: cell-based; details: read-out: Minimal Inhibitory Conc. (MIC)
# [11] = tested on: Trichoderma T-1 ATCC 9645; test: Antifungal Activity (in Industrial Field), MIC; type: cell-based; details: ATCC9645, read-out: Minimal Inhibitory Conc. (MIC)
# [12] = tested on: Chaetomium globosum ATCC 6205; test: Antifungal Activity (in Industrial Field), MIC; type: cell-based; details: ATCC6205, read-out: Minimal Inhibitory Conc. (MIC)
# [13] = tested on: Corynebacterium michiganense; test: Antibacterial and Antifungal Activities (in Agricultural Field), MIC; type: cell-based; details: Clavibacter michiganensis, read-out: Minimal Inhibitory Conc. (MIC)
# Diaporithe citri = test: as above; type: cell-based; details: read-out: Minimal Inhibitory Conc. (MIC)
# [14] = tested on: Pseudomonas cepacia M-0527; test: Antibacterial Activity (in medicinal field), MIC; type: cell-based; details: Burkholderia cepacia, M0527, read-out: Minimal Inhibitory Conc. (MIC)
# [15] = tested on: Pullularia pullulans IAM F-24; test: Antifungal Activity (in Industrial Field), MIC; type: cell-based
# Proteus vulgaris OX-19 = test: Antibacterial Activity (in medicinal field), MIC; type: cell-based; details: OX19, read-out: Minimal Inhibitory Conc. (MIC)
# [16] = tested on: Aspergillus terreus PQMD 82 j; test: Antifungal Activity (in Industrial Field), MIC; type: cell-based; details: PQMD82J, read-out: Minimal Inhibitory Conc. (MIC)
# Candida alubicans GA-24 = test: Antifungal Activity (in Medicinal Field), MIC; type: cell-based; details: GA24; Candida alubicans GA-24; read-out: Minimal Inhibitory Conc. (MIC)
# [17] = tested on: Fusarium oxysporum f. lycopersici; test: Antibacterial and Antifungal Activities (in Agricultural Field), MIC; type: cell-based; details: read-out: Minimal Inhibitory Conc. (MIC)
# [18] = tested on: Xanthomonas campestris pv. oryzae; test: microbe, parasite or virus in culture; type: cell-based; details: read-out: Minimal Inhibitory Conc. (MIC)
# [19] = tested on: Cladosporium herbarum IAM F-517; test: Antifungal Activity (in Industrial Field), MIC; type: cell-based; details: IAMF517, read-out: Minimal Inhibitory Conc. (MIC)
# [20] = tested on: Aspergillus fumigatus Saito; test: Antifungal Activity (in Medicinal Field), MIC; type: cell-based; details: read-out: Minimal Inhibitory Conc. (MIC)
# [21] = tested on: Staphylococcus epidermidis ATCC 14990; test: Antibacterial Activity (in medicinal field), MIC; type: cell-based; details: ATCC14990; Staphylococcus epidermidis ATCC 14990; read-out: Minimal Inhibitory Conc. (MIC)
# [22] = tested on: Pseudomonas syringae pv. tabaci; test: Antibacterial and Antifungal Activities (in Agricultural Field), MIC; type: cell-based; details: read-out: Minimal Inhibitory Conc. (MIC)
# Mucor spinescens IAM Mu3 = test: Antifungal Activity (in Industrial Field), MIC; type: cell-based; details: IAMMU3, read-out: Minimal Inhibitory Conc. (MIC)
# [23] = tested on: Colletotrichum lagenarium; test: Antibacterial and Antifungal Activities (in Agricultural Field), MIC; type: cell-based; details: Colletotrichum orbiculare, read-out: Minimal Inhibitory Conc. (MIC)
# [24] = tested on: Rhizopus nigricans S.N. 32; test: Antifungal Activity (in Industrial Field), MIC; type: cell-based; details: Rhizopus stolonifer, read-out: Minimal Inhibitory Conc. (MIC)
# Phricularia oryzae = test: Antibacterial and Antifungal Activities (in Agricultural Field), MIC; type: cell-based; details: read-out: Minimal Inhibitory Conc. (MIC)
# [25] = tested on: Trichophyton mentagrophytes; test: Therapeutic experiment on trichophytosis in guinea pigs, visual observation; type: in vivo, guinea pigs (White Hartly-strain); details: 1% preparation, 0.25 ml once per day, 8 consecutive days
# [26] = tested on: Trichophyton mentagrophytes; test: Reducing culture positive rate of skin slices from infected guinea pigs; type: in vivo, guinea pigs (White Hartly-strain); design: concentration or dose not given beside the values; details: after 8 days application, non-treated 100
# [27] = tested on: Serratia marcescens MB-3848; test: Antibacterial Activity (in medicinal field), MIC; type: cell-based; details: MB3848, read-out: Minimal Inhibitory Conc. (MIC)
# [28] = tested on: Escherichia coli NIHJ JC-2; test: Antibacterial Activity (in medicinal field), MIC; type: cell-based; details: NIHJJC2, read-out: Minimal Inhibitory Conc. (MIC)
# [29] = IAMF24, Pullularia pullulans IAM F-24, read-out: Minimal Inhibitory Conc. (MIC)
smiles,measurement,setting,value
"O=[N+]([O-])c1nccn1CC(I)=C(I)I [1-(2',3',3'-triiodoallyl)-2-nitroimidazole]",MIC,Glomerella cingulata,0.78 µg/mL
same,MIC,[1],25 µg/mL
same,MIC,[2],1.56 µg/mL
same,MIC,[3],12.5 µg/mL
same,MIC,[4],1.56 µg/mL
same,MIC,Pellicularia filamentosa,25 µg/mL
same,MIC,[5],6.25 µg/mL
same,MIC,Alternaria kikuchiana,0.78 µg/mL
same,MIC,[6],3.12 µg/mL
same,MIC,Gibberella fujikuroi,0.78 µg/mL
same,MIC,[7],3.13 µg/mL
same,MIC,[8],6.25 µg/mL
same,MIC,Cochliobolus miyabeanus,0.78 µg/mL
same,MIC,[9],0.78 µg/mL
same,MIC,Erwinia carotovora,12.5 µg/mL
same,MIC,[10],25 µg/mL
same,MIC,Botrytis cinerea,0.19 µg/mL
same,MIC,[11],6.25 µg/mL
same,MIC,[12],1.56 µg/mL
same,MIC,[13]; Corynebacterium michiganense,3.13 µg/mL
same,MIC,Diaporithe citri,1.56 µg/mL
same,MIC,[14],3.12 µg/mL
same,MIC,[15]; [29],3.13 µg/mL
same,MIC,Proteus vulgaris OX-19,6.25 µg/mL
same,MIC,[16],0.78 µg/mL
same,MIC,Candida alubicans GA-24,0.78 µg/mL
same,MIC,[17],1.56 µg/mL
same,MIC,[18],12.5 µg/mL
same,MIC,[19],0.39 µg/mL
same,MIC,[20],0.78 µg/mL
same,MIC,[21],12.5 µg/mL
same,MIC,[22],12.5 µg/mL
same,MIC,Mucor spinescens IAM Mu3,6.25 µg/mL
same,MIC,[23],0.78 µg/mL
"Cc1nnn(CC(I)=C(I)I)n1 [2-(2',3',3'-triiodoallyl)-5-methyltetrazole]",MIC,Glomerella cingulata,0.39 µg/mL
same,MIC,[1],50 µg/mL
same,MIC,[2],1.56 µg/mL
same,MIC,[4],0.19 µg/mL
same,MIC,Pellicularia filamentosa,> 100 µg/mL
same,MIC,[5],1.56 µg/mL
same,MIC,Alternaria kikuchiana,1.56 µg/mL
same,MIC,Gibberella fujikuroi,0.78 µg/mL
same,MIC,[7],6.25 µg/mL
same,MIC,Cochliobolus miyabeanus,6.25 µg/mL
same,MIC,[9],0.19 µg/mL
same,MIC,Erwinia carotovora,> 100 µg/mL
same,MIC,[10],1.56 µg/mL
same,MIC,Botrytis cinerea,0.39 µg/mL
same,MIC,[11],6.25 µg/mL
same,MIC,[12],6.25 µg/mL
same,MIC,[13]; Corynebacterium michiganense,25 µg/mL
same,MIC,Diaporithe citri,0.78 µg/mL
same,MIC,"[15]; IAMF24, read-out: Minimal Inhibitory Conc. (MIC)",3.13 µg/mL
same,MIC,[16],0.39 µg/mL
same,MIC,Candida alubicans GA-24,0.78 µg/mL
same,MIC,[17],3.13 µg/mL
same,MIC,[18],6.25 µg/mL
same,MIC,[24],1.56 µg/mL
same,MIC,Phricularia oryzae,3.13 µg/mL
same,MIC,[19],6.25 µg/mL
same,MIC,[20],0.19 µg/mL
same,MIC,[22],> 100 µg/mL
same,MIC,Mucor spinescens IAM Mu3,1.56 µg/mL
same,MIC,[23],0.78 µg/mL
"O=[N+]([O-])c1ccn(CC(I)=C(I)I)c1 [1-(2',3',3'-triiodoallyl)-3-nitropyrrole]",MIC,Glomerella cingulata,0.39 µg/mL
same,MIC,[1],50 µg/mL
same,MIC,[4],0.39 µg/mL
same,MIC,Pellicularia filamentosa,50 µg/mL
same,MIC,Alternaria kikuchiana,0.78 µg/mL
same,MIC,Gibberella fujikuroi,0.39 µg/mL
same,MIC,Cochliobolus miyabeanus,12.5 µg/mL
same,MIC,[9],0.19 µg/mL
same,MIC,Erwinia carotovora,6.25 µg/mL
same,MIC,[10],0.39 µg/mL
same,MIC,Botrytis cinerea,0.19 µg/mL
same,MIC,[13],0.98 µg/mL
same,MIC,Diaporithe citri,0.39 µg/mL
same,MIC,Candida alubicans GA-24,0.19 µg/mL
same,MIC,[17],0.78 µg/mL
same,MIC,[18],25 µg/mL
same,MIC,Phricularia oryzae,1.56 µg/mL
same,Therapeutic Effect: Desquamation,[25],effective
same,Therapeutic Effect: Thickening,[25],effective
same,MIC,[20],0.09 µg/mL
same,Reducing Culture Positive Rate,[26]; 3 days culture,16.7%
same,Reducing Culture Positive Rate,[26]; 5 days culture,25.0%
same,Reducing Culture Positive Rate,[26]; 7 days culture,33.3%
same,MIC,[22],6.25 µg/mL
same,MIC,[23],0.39 µg/mL
"IC(I)=C(I)Cn1ccnc1 [1-(2',3',3'-triiodoallyl)imidazole]",MIC,Glomerella cingulata,1.56 µg/mL
same,MIC,[1],25 µg/mL
same,MIC,[2],3.13 µg/mL
same,MIC,[3],12.5 µg/mL
same,MIC,[4],3.12 µg/mL
same,MIC,Pellicularia filamentosa,50 µg/mL
same,MIC,[5],6.25 µg/mL
same,MIC,Alternaria kikuchiana,1.56 µg/mL
same,MIC,[6],6.5 µg/mL
same,MIC,Gibberella fujikuroi,0.78 µg/mL
same,MIC,[7],0.78 µg/mL
same,MIC,[27],12.5 µg/mL
same,MIC,[8],12.5 µg/mL
same,MIC,Cochliobolus miyabeanus,6.25 µg/mL
same,MIC,[9],1.56 µg/mL
same,MIC,Erwinia carotovora,12.5 µg/mL
same,MIC,[28],12.5 µg/mL
same,MIC,[10],6.25 µg/mL
same,MIC,Botrytis cinerea,1.56 µg/mL
same,MIC,[11],6.25 µg/mL
same,MIC,[12],1.56 µg/mL
same,MIC,[13]; Corynebacterium michiganense,1.56 µg/mL
same,MIC,Diaporithe citri,0.78 µg/mL
same,MIC,[14],6.25 µg/mL
same,MIC,[15]; [29],3.13 µg/mL
same,MIC,Proteus vulgaris OX-19,12.5 µg/mL
same,MIC,[16],0.78 µg/mL
same,MIC,Candida alubicans GA-24,1.56 µg/mL
same,MIC,[17],1.56 µg/mL
same,MIC,Phricularia oryzae,3.13 µg/mL
same,MIC,[19],0.39 µg/mL
same,MIC,[20],6.25 µg/mL
same,MIC,[21],12.5 µg/mL
same,MIC,[22],12.5 µg/mL
same,MIC,Mucor spinescens IAM Mu3,6.25 µg/mL
same,MIC,[23],1.56 µg/mL
